# Patent US20140128385A1 (NOVARTIS AG, priority 2011, published 2014)
# Counter-ions that a name gives are not always drawn.
# Biological target: T1, BACE-2 (Homo sapiens, UniProt Q9Y5Z0)
# T1 construct: Recombinant BACE-2 (extracellular domain, expressed in baculovirus and purified using standard methods); made in house
# T1 sequence (Q9Y5Z0 63-473 limits assumed): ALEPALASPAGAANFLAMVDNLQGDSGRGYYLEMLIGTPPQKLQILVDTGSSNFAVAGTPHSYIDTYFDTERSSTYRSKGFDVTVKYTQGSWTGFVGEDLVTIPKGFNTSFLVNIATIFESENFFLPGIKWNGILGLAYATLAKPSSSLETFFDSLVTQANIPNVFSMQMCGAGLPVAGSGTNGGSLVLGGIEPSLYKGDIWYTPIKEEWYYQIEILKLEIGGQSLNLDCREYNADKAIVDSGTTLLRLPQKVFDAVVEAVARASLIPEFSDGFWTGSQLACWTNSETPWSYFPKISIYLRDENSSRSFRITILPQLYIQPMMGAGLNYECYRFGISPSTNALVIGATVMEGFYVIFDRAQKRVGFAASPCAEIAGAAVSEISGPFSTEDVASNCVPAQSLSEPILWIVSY
# Assay: assay for inhibition of BACE-2
# Format: biochemical
row,SMILES,IC50 [nM]
1,"CC1(c2cccc(NC(=O)c3cccnc3)c2)COCC(N)=N1 (centres unmarked) [Example 28, N-[3-(5-Amino-3-methyl-3,6-dihydro-2H-[1,4]oxazin-3-yl)-phenyl]-nicotinamide hydrochloride]",> 10000
2,"Cc1cc(Br)cnc1C(=O)Nc1cccc([C@]2(C)COCC(=N)N2)c1 [Example 29, 5-Bromo-3-methyl-pyridine-2-carboxylic acid [3-((R)-5-amino-3-methyl-3,6-dihydro-2H-[1,4]oxazin-3-yl)-phenyl]-amide hydrochloride]",21
3,"NC1=NC(CF)(c2cccc(NC(=O)c3ccc(Br)cn3)c2)COC1 (centres unmarked) [Example 31, 5-Bromo-pyridine-2-carboxylic acid [3-(5-amino-3-fluoromethyl-3,6-dihydro-2H-[1,4]oxazin-3-yl)-phenyl]-amide]",130
4,"NC1=N[C@](CF)(c2cccc(NC(=O)c3ccc(Br)cn3)c2)COC1 [Example 33, 5-Bromo-pyridine-2-carboxylic acid [3-((R)-5-amino-3-fluoromethyl-3,6-dihydro-2H-[1,4]oxazin-3-yl)-phenyl]-amide]",90
5,NC1=NC(c2cccc(NC(=O)c3ccc(Cl)cn3)c2)(C(F)F)COC1 (centres unmarked) [Example 35],139
6,Cc1cnc(C(=O)Nc2cccc(C3(C(F)F)COCC(N)=N3)c2)cn1 (centres unmarked) [Example 38],9010
7,"NC1=NC(c2cc(NC(=O)c3ccc(Br)cn3)ccc2F)(C(F)F)COC1 (centres unmarked) [Example 42, 5-Bromo-pyridine-2-carboxylic acid [3-(5-amino-3-difluoromethyl-3,6-dihydro-2H-[1,4]oxazin-3-yl)-4-fluoro-phenyl]-amide hydrochloride]",53
8,Cc1cnc(C(=O)Nc2ccc(F)c([C@]3(C(F)F)COCC(N)=N3)c2)cn1 [Example 48],511
9,C[C@@]1(c2cc(NC(=O)c3ccc(Br)cn3)ccc2F)CO[C@@](C)(C(F)(F)F)C(N)=N1 [Example 68],3
10,"C[C@@]1(c2cc(NC(=O)c3ncc(Br)cn3)ccc2F)CO[C@@](C)(C(F)(F)F)C(N)=N1 [Example 71, 5-Bromo-pyrimidine-2-carboxylic acid [3-((3R,6R)-5-amino-3,6-dimethyl-6-trifluoromethyl-3,6-dihydro-2H-[1,4]oxazin-3-yl)-4-fluoro-phenyl]-amide hydrochloride]",3
11,COCCOc1cnc(C(=O)Nc2ccc(F)c([C@]3(C)CO[C@@](C)(C(F)(F)F)C(N)=N3)c2)cn1 [Example 74],514
12,NC1=NC(c2cc(NC(=O)c3ccc(Br)cn3)c(F)cc2F)(C(F)F)COC1 (centres unmarked) [Example 81],4290
13,N#Cc1ccc(C(=O)Nc2cc(C3(C(F)F)COCC(N)=N3)c(F)cc2F)nc1 (centres unmarked) [Example 82],1230
14,COc1cc(Br)cnc1C(=O)Nc1cc(C2(C(F)F)COCC(N)=N2)c(F)cc1F (centres unmarked) [Example 83],5880
15,NC1=NC(c2cc(NC(=O)c3ncc(Br)cc3O)c(F)cc2F)(C(F)F)COC1 (centres unmarked) [Example 84],3440
16,"NC1=N[C@](CF)(c2cc(NC(=O)c3ccc(Cl)cn3)ccc2F)COC1 [Example 85, 5-Chloro-pyridine-2-carboxylic acid [3-((R)-5-amino-3-fluoromethyl-3,6-dihydro-2H-[1,4]oxazin-3-yl)-4-fluoro-phenyl]-amide hydrochloride]",8
17,NC1=NC(CF)(c2cc(NC(=O)c3ccc(Br)cn3)ccc2F)COC1 (centres unmarked) [Example 86],32
18,NC1=NC(CF)(c2cc(NC(=O)c3ncc(Cl)cc3Cl)ccc2F)COC1 (centres unmarked) [Example 88],12
19,N#Cc1ccc(C(=O)Nc2ccc(F)c(C3(CF)COCC(N)=N3)c2)nc1 (centres unmarked) [Example 89],152
20,Cc1cc(Br)cnc1C(=O)Nc1ccc(F)c(C2(CF)COCC(N)=N2)c1 (centres unmarked) [Example 90],11
21,Cc1cc(Br)cnc1C(=O)Nc1ccc(F)c([C@]2(CF)COCC(N)=N2)c1 [Example 91],6
22,Cc1cc(Cl)cnc1C(=O)Nc1ccc(F)c([C@]2(CF)COCC(N)=N2)c1 [Example 92],0.4
23,Cl.[2H]c1nc(C(=O)Nc2ccc(F)c([C@]3(CF)COCC(N)=N3)c2)c(C([2H])([2H])[2H])c([2H])c1Cl [Example 93],1.4
24,"N#Cc1ccc(C(=O)Nc2ccc(F)c(C3(C(F)(F)F)CCOCC(N)=N3)c2)nc1 (centres unmarked) [Example 98, 5-Cyano-pyridine-2-carboxylic acid [3-(3-amino-5-trifluoromethyl-2,5,6,7-tetrahydro-[1,4]oxazepin-5-yl)-4-fluoro-phenyl]-amide hydrochloride]",144

# Now from value to compound:
row,IC50 [nM],SMILES
1,> 10000,"CC1(c2cccc(NC(=O)c3coc(C(F)(F)F)c3)c2)COCC(N)=N1 (centres unmarked) [Example 23, 5-Trifluoromethyl-furan-3-carboxylic acid [3-(5-amino-3-methyl-3,6-dihydro-2H-[1,4]oxazin-3-yl)-phenyl]-amide hydrochloride]"
2,1070,"CC1(c2cccc(NC(=O)c3ccc(Br)cc3)c2)COCC(N)=N1 (centres unmarked) [Example 24, N-[3-(5-Amino-3-methyl-3,6-dihydro-2H-[1,4]oxazin-3-yl)-phenyl]-4-bromo-benzamide hydrochloride]"
3,> 10000,"CC1(c2cccc(NC(=O)C3CCCCC3)c2)COCC(N)=N1 (centres unmarked) [Example 25, Cyclohexanecarboxylic acid [3-(5-amino-3-methyl-3,6-dihydro-2H-[1,4]oxazin-3-yl)-phenyl]-amide hydrochloride]"
4,> 10000,"CC1(c2cccc(NC(=O)C3CCC(F)(F)CC3)c2)COCC(N)=N1 (centres unmarked) [Example 26, 4,4-Difluoro-cyclohexanecarboxylic acid [3-(5-amino-3-methyl-3,6-dihydro-2H-[1,4]oxazin-3-yl)-phenyl]-amide hydrochloride]"
5,374,"Cc1ccc(C(=O)Nc2cccc(C3(C)COCC(N)=N3)c2)nc1 (centres unmarked) [Example 27, 5-Methyl-pyridine-2-carboxylic acid [3-(5-amino-3-methyl-3,6-dihydro-2H-[1,4]oxazin-3-yl)-phenyl]-amide hydrochloride]"
6,367,"COc1ccc(C(=O)Nc2cccc([C@]3(C)COCC(N)=N3)c2)nc1 [Example 30, 5-Methoxy-pyridine-2-carboxylic acid [3-((R)-5-amino-3-methyl-3,6-dihydro-2H-[1,4]oxazin-3-yl)-phenyl]-amide hydrochloride]"
7,1020,NC1=NC(CF)(c2cc(Cl)cc(NC(=O)c3ccc(Br)cn3)c2)COC1 (centres unmarked) [Example 32]
8,345,"NC1=NC(c2cccc(NC(=O)c3ccc(Br)cn3)c2)(C(F)F)COC1 (centres unmarked) [Example 34, 5-Bromo-pyridine-2-carboxylic acid [3-(5-amino-3-difluoromethyl-3,6-dihydro-2H-[1,4]oxazin-3-yl)-phenyl]-amide hydrochloride]"
9,910,N#Cc1ccc(C(=O)Nc2cccc(C3(C(F)F)COCC(N)=N3)c2)nc1 (centres unmarked) [Example 36]
10,58,Cc1cc(Br)cnc1C(=O)Nc1cccc(C2(C(F)F)COCC(N)=N2)c1 (centres unmarked) [Example 37]
11,2970,NC1=NC(c2cccc(NC(=O)c3ccc(C(F)(F)F)cn3)c2)(C(F)F)COC1 (centres unmarked) [Example 39]
12,2450,NC1=NC(c2cccc(NC(=O)c3ncc(C(F)(F)F)cc3Cl)c2)(C(F)F)COC1 (centres unmarked) [Example 40]
13,28,Cc1cc(Cl)cnc1C(=O)Nc1cccc(C2(C(F)F)COCC(N)=N2)c1 (centres unmarked) [Example 41]
14,28,NC1=NC(c2cc(NC(=O)c3ccc(Cl)cn3)ccc2F)(C(F)F)COC1 (centres unmarked) [Example 43]
15,5,Cc1cc(Cl)cnc1C(=O)Nc1ccc(F)c([C@]2(C(F)F)COCC(N)=N2)c1 [Example 44]
16,10,Cc1cc(Br)cnc1C(=O)Nc1ccc(F)c([C@]2(C(F)F)COCC(N)=N2)c1 [Example 45]
17,130,NC1=N[C@@](c2cc(NC(=O)c3ncc(C(F)(F)F)cc3Cl)ccc2F)(C(F)F)COC1 [Example 46]
18,251,NC1=N[C@@](c2cc(NC(=O)c3ccc(C(F)(F)F)cn3)ccc2F)(C(F)F)COC1 [Example 47]
19,27,COc1ccc(C(=O)Nc2cccc([C@]3(C)CO[C@@](C)(C(F)(F)F)C(N)=N3)c2)nc1 [Example 67]
20,1,COc1ccc(C(=O)Nc2ccc(F)c([C@]3(C)CO[C@@](C)(C(F)(F)F)C(N)=N3)c2)nc1 [Example 69]
21,4,C[C@@]1(c2cc(NC(=O)c3ncc(C#N)cn3)ccc2F)CO[C@@](C)(C(F)(F)F)C(N)=N1 [Example 70]
22,27,C[C@@]1(c2cc(NC(=O)c3ccc(C#N)cn3)ccc2F)CO[C@@](C)(C(F)(F)F)C(N)=N1 [Example 73]
23,316,"CC1(C)OCC(c2cc(NC(=O)c3ccc(C#N)cn3)ccc2F)(C(F)F)N=C1N (centres unmarked) [Example 79, 5-Cyano-pyridine-2-carboxylic acid[3-(5-amino-3-difluoromethyl-6,6-dimethyl-3,6-dihydro-2H-[1,4]oxazin-3-yl)-4-fluoro-phenyl]-amide]"
24,64,CC1(C)OCC(c2cc(NC(=O)c3ccc(Br)cn3)ccc2F)(C(F)F)N=C1N (centres unmarked) [Example 80]
25,25,NC1=NC(CF)(c2cc(NC(=O)c3ccc(Cl)cn3)ccc2F)COC1 (centres unmarked) [Example 87]
26,33,NC1=N[C@](CF)(c2cc(NC(=O)c3ncc(Br)cc3O)ccc2F)COC1 [Example 94]
27,53,COc1cc(Br)cnc1C(=O)Nc1ccc(F)c([C@]2(CF)COCC(N)=N2)c1 [Example 95]
28,11,NC1=N[C@@](c2cc(NC(=O)c3ccc(Br)cn3)ccc2F)(C(F)F)CCOC1 [Example 97]
29,37,NC1=NC(c2cc(NC(=O)c3ccc(Br)cn3)ccc2F)(C(F)(F)F)CCOC1 (centres unmarked) [Example 99]
